For data set [1], the system named is Ba/F3 cells containing Ros1 wild-type protein + IL-3. The data set can be described thus: Ba/F3-Ros1 cell proliferation counter-screen, wild-type protein in the presence of 10 ng/ml murine IL-3. It counts as cell-based. Particulars: Mus musculus, BaF3, 24 h, read-out: BaF3-ROS1 + IL3 pIC50 (converted). Summed up:
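IL-3 rescue counter-screen: WT Ros1 Ba/F3, 10 ng/ml mIL-3, 24 h compound exposure, 37 °C/5% CO2; Alamar Blue added 4 h, RFU ex540/em590.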
(In general: Counterscreens check selectivity or assay interference.)

The target of data set [2] is Ba/F3 cells containing Ros1 with a mutation at the gatekeeper residue (L2026M) (Homo sapiens, UniProt P08922, L2026M, cells depend on it, form not given). The data set can be described thus: Ba/F3-Ros1 cell proliferation assay, L2026M gatekeeper mutant. Type of data set: cell-based, murine. Particulars: without IL-3. Summed up: (§1)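 Ba/F3 cells expressing wild-type, L2026M or G2032R Ros1 (20000 per well) were incubated with DMSO-solubilized compounds in phenol red-free RPMI-1640 with 10% FBS and 2 mM L-glutamine at 37 °C, 5% CO2 for 24 hours. Viability was then read by Alamar Blue fluorescence (ex 540/em 590 nm) after 4 h.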
Ba/F3 cells containing Ros1 with a mutation at the gatekeeper residue (L2026M), sequence (P08922 whole entry L2026M, form open): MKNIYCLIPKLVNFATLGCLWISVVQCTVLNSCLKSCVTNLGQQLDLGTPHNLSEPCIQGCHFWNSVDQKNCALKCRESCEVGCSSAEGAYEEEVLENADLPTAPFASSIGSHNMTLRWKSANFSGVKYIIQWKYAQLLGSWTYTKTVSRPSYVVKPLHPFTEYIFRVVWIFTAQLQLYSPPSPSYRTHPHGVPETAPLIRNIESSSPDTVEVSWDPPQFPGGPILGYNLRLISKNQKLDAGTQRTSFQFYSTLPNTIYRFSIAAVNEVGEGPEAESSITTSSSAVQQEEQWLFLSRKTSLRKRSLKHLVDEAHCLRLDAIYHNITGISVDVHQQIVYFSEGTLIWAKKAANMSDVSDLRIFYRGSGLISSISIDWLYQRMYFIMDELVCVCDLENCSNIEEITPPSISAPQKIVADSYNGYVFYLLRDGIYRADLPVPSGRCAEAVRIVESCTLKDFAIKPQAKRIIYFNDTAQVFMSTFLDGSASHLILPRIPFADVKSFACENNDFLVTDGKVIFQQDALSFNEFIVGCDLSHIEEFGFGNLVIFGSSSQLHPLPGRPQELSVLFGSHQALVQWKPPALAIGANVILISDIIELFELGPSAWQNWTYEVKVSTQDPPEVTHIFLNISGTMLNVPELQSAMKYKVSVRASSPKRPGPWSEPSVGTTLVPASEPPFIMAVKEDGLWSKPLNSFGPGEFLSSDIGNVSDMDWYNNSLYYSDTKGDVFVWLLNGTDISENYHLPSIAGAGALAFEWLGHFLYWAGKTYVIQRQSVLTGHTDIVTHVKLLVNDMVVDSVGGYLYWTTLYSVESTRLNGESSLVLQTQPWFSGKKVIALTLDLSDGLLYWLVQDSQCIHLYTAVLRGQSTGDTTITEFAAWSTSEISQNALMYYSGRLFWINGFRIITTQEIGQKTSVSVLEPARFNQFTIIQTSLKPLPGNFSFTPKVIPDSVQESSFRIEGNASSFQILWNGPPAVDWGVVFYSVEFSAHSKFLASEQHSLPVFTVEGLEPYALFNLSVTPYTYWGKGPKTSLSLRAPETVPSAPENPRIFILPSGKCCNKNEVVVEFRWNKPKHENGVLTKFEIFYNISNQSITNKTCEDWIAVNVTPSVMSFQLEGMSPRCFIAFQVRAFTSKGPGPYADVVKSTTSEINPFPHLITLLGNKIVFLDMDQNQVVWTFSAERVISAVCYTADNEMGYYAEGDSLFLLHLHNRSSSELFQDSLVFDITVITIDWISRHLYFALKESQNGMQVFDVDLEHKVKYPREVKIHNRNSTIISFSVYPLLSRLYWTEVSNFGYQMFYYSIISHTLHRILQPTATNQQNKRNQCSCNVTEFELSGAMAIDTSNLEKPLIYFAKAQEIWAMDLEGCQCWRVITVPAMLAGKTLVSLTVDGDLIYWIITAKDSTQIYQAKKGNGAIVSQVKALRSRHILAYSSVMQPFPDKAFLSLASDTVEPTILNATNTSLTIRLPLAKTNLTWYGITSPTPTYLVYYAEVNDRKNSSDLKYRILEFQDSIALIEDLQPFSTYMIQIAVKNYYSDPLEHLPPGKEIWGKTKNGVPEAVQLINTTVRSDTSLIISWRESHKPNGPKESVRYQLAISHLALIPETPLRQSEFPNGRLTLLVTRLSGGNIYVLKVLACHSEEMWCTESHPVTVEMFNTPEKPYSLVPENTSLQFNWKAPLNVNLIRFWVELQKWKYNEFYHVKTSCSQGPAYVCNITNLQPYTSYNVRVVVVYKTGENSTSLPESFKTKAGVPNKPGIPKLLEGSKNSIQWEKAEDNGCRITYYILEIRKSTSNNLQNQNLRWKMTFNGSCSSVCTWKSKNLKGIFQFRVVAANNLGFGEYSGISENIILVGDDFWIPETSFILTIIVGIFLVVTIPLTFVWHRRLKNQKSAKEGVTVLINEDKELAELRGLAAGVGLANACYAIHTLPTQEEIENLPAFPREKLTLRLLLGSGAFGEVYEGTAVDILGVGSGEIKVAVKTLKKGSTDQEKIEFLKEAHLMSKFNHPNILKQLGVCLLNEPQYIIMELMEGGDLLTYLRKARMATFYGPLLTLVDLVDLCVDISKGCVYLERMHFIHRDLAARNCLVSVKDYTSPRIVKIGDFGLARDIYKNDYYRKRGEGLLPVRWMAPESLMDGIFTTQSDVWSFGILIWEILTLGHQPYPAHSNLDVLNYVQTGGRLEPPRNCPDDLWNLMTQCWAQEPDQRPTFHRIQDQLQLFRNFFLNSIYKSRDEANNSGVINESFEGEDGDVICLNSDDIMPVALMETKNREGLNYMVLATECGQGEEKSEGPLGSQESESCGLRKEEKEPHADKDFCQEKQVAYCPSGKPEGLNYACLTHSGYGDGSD

Data set [3] concerns the target Ba/F3 cells containing Ros1 with G2032R mutation (Homo sapiens, UniProt P08922, G2032R, cells depend on it, form not given). The data set can be described thus: Ba/F3-Ros1 cell proliferation assay, G2032R crizotinib-resistance mutant. It counts as cell-based, murine. Particulars: without IL-3. Summed up:
as §1

In data set [4] the target is T1, Ba/F3 cells containing Ros1 wild-type protein (Homo sapiens, UniProt P08922, cells depend on it, form not given).
T1 construct: The background only speaks of 'a number of different unrelated proteins' and names SLC34A2-ROS1 for HCC78 cells
T1 sequence (P08922 whole entry, stated change not applied): as the sequence (P08922 whole entry L2026M, form open) above, with M2026L counted along it
The data set can be described thus: Ba/F3-Ros1 cell proliferation assay, wild-type Ros1. Type of data set: cell-based, murine. Particulars: without IL-3. Summed up: as §1

Ba/F3 cells containing Ros1 with G2032R mutation, sequence (P08922 whole entry G2032R, form open): as the sequence (P08922 whole entry L2026M, form open) above, with M2026L, G2032R counted along it

What is called melting point is the temperature, or range, at which the solid turns liquid. With `CC(C)c1ccc(COc2ccc(-c3c(-c4ccncc4)nn4c3C(=O)N(CCO)CC4)cc2)cc1` [Compound 2], the melting point is 181 °C. Also, the CC50 in data set [1] was greater than 10 µM. In addition, in data set [2], the “Ba/F3 Ros1 L2026M (-IL-3) pIC50” value is on record as 7.4. Also, the “Ba/3 Ros1 G2032R (-IL-3) pIC50” value in data set [3] worked out at 7.1. Besides, the “BaF3-ROS1-IL3 pIC50” value in data set [4] came to 7.6.

For the compound `CC(C)c1ccc(COc2ccc(-c3c(-c4ccncc4)nn4c3C(=O)NCC4)cc2)cc1` [Compound 1], the CC50 in data set [1] is greater than 10 µM. Further, the “Ba/F3 Ros1 L2026M (-IL-3) pIC50” value in data set [2] is given as 7.3. Also, the “Ba/3 Ros1 G2032R (-IL-3) pIC50” value in data set [3] is 7.0. Further, the “BaF3-ROS1-IL3 pIC50” value in data set [4] was found to be 7.6.

The values are drawn from US10280170B2, “Substituted 4,5,6,7-tetrahydro-pyrazolo[1,5-a]pyrazine derivatives and 5,6,7,8-tetrahydro-4H-pyrazolo[1,5-a][1,4]diazepine derivatives as Ros1 inhibitors” (Janssen Pharmaceutica NV, priority 2014, dated 2019).
